According to PubChem BioAssay AID1033 (Sanford-Burnham Center for Chemical Genomics, 2008):
Activity calls are given as the source filed them. The rule behind the calls is not given here.

Target: Chaperone protein DnaK (Escherichia coli (strain K12)) (UniProt P0A6Y8)
Assay: binders of DnaK substrate-binding domain, biophysical, NMR, chaperone (AID 1033)
Settings: Purified DnaK SBD, NMR ligand binding

Sequence of Chaperone protein DnaK (Escherichia coli (strain K12)) (P0A6Y8 whole entry, looked up, the tested form may be a part): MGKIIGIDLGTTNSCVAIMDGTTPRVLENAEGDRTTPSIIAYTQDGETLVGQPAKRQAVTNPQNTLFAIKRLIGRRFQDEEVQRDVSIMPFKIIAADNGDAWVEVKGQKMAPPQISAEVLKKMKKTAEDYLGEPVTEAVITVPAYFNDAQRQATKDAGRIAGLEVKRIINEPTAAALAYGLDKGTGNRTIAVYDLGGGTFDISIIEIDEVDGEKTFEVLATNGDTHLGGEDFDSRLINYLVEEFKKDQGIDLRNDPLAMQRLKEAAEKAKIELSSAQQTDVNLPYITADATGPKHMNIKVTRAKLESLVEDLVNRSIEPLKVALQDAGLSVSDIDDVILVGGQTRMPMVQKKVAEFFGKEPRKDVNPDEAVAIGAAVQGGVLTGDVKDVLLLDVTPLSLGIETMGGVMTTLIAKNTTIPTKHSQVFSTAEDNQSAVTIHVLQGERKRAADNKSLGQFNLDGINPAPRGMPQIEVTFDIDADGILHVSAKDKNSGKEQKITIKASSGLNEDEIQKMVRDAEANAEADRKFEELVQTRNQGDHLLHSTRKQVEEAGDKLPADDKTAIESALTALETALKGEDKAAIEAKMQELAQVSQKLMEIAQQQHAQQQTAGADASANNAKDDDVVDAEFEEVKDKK

| Structure (SMILES) | Kd |
| --- | --- |
| O=c1[nH]cc(S(=O)(=O)N2CCc3ccccc32)c(=O)[nH]1 | > 4 mM (inactive) |
| OCCN1CCN(C(=S)c2ccc(Cl)cc2)CC1 | > 4 mM (inactive) |
| O=C(Oc1ccc(-c2nnco2)cc1)N1CCOCC1 | > 4 mM (inactive) |
| Nc1nc(-c2nc3ccccc3[nH]2)cs1 | > 4 mM (inactive) |
| COCC(=O)OCn1nnc2ccccc2c1=O | > 4 mM (inactive) |
| Nc1ccc(C2SCCS2)cc1 | > 4 mM (inactive) |
| CN1CCN(c2ccc(N)cc2)CC1 | > 4 mM (inactive) |
| Cc1cc(NC(=O)c2ccccc2C(=O)O)no1 | > 4 mM (inactive) |
| Nc1cc(F)nc(F)n1 | > 4 mM (inactive) |
| N=c1n(N)c2ccccc2n1CCO | > 4 mM (inactive) |
| CC(CCC(=O)O)[C@H]1CCC2C3CC[C@@H]4C[C@H](O)CC[C@]4(C)C3C[C@H](O)[C@@]21C (some centres not stated) | > 4 mM (inactive) |
| C/C=C(\C)C(=O)O[C@@H]1c2c(ccc3ccc(=O)oc23)OC(C)(C)[C@@H]1OC(C)=O | > 4 mM (inactive) |
| CC(=O)Nc1ccc(NC(=O)N2CCOCC2)cc1 | > 4 mM (inactive) |
| CCOc1ccc(-c2c(=O)n(O)c3ccccc3[n+]2[O-])cc1 | > 4 mM (inactive) |
| CS(=O)(=O)CCCCN=C=S | > 4 mM (inactive) |
| OCc1ccc(-n2cccn2)cc1 | > 4 mM (inactive) |
| CSc1cccc(NC(=O)c2c(Cl)cnn2C)c1 | > 4 mM (inactive) |
| COCC(=O)Nc1cccc2ccccc12 | > 4 mM (inactive) |
| Cc1ccc(S(=O)(=O)CCc2ccccn2)cc1 | > 4 mM (inactive) |
| O=C1C2C3C=CC(C3)C2C(=O)N1CCCO (configuration not stated) | > 4 mM (inactive) |
| O=C(NCc1ccncc1)c1cccc(F)c1 | > 4 mM (inactive) |
| O=C(O)Cn1c(=O)sc2ccccc21 | > 4 mM (inactive) |
| CS(=O)(=O)Nc1ccccc1C(=O)c1ccccc1 | > 4 mM (inactive) |
| Cc1oc(-c2ccccc2)cc1C(=O)O | > 4 mM (inactive) |
| Cc1onc(-c2ccccc2)c1CN | > 4 mM (inactive) |

| Structure (SMILES) | Kd |
| --- | --- |
| CC(=O)OCC(=O)[C@@]1(O)CCC2C3CC[C@@H]4C[C@H](OC(C)=O)CC[C@]4(C)C3C(=O)C[C@@]21C (some centres not stated) | > 4 mM (inactive) |
| O=C(c1cc2ccccc2o1)c1nc2c(n1O)CCCCC2 | > 4 mM (inactive) |
| CC(=O)NC(c1ccccc1)c1cccnc1 (configuration not stated) | > 4 mM (inactive) |
| OCC12COC3c4ccccc4C(OC1)N32 (configuration not stated) | > 4 mM (inactive) |
| O=C(O)CN1CCN(C2CCCC2)CC1 | > 4 mM (inactive) |
| CC1CC[C@@]2(OC1)O[C@H]1CC3C4CC[C@@H]5C[C@@H](O)CC[C@]5(C)C4CC[C@]3(C)[C@H]1[C@@H]2C (some centres not stated) | > 4 mM (inactive) |
| Cc1noc(C)c1C(=O)Nc1sc(C)c(C)c1C#N | > 4 mM (inactive) |
| O=C1CCC(=O)N1CN1CCOCC1 | > 4 mM (inactive) |
| COc1ccccc1N1C(=N)SCC1=O | > 4 mM (inactive) |
| NC(=O)CSc1nc2ccccc2o1 | > 4 mM (inactive) |
| O=S(=O)(Nc1cccc2cn[nH]c12)c1ccc(F)cc1 | > 4 mM (inactive) |
| O=C1NC(=O)C(=Cc2cccs2)C(=O)N1 | > 4 mM (inactive) |
| COc1cc2c(cc1OC)Cc1cc(OC)c(OC)cc1Cc1cc(OC)c(OC)cc1C2 | > 4 mM (inactive) |
| Cc1noc(C)c1C(=O)N1CCC2(CC1)OCCO2 | > 4 mM (inactive) |
| O=C(Nc1ccon1)c1ccc2c(c1)OCO2 | > 4 mM (inactive) |
| O=C(O)/C=C/C=C/c1ccccc1 | > 4 mM (inactive) |
| Cc1ccccc1-n1c(-c2ccncc2)n[nH]c1=S | > 4 mM (inactive) |
| Cc1ccc(/C=C2/NC(=S)NC2=O)s1 | > 4 mM (inactive) |
| O=C1C2CC=CCC2C(=O)N1c1cccc(O)c1 (configuration not stated) | > 4 mM (inactive) |
| O=C(Nc1ccon1)c1cccc(C(F)(F)F)c1 | > 4 mM (inactive) |
| CC12CN([N+](=O)[O-])C3(C(N)=O)CC1CCC23C (configuration not stated) | > 4 mM (inactive) |
| c1ccc2[nH]c(NCCN3CCOCC3)nc2c1 | > 4 mM (inactive) |
| C=C1C2CC[C@@]3(C)[C@H](c4ccoc4)OC(=O)C[C@]13O[C@H]1CC(=O)C(C)(C)[C@H](C(OC(C)=O)C(=O)OC)[C@@]21C (some centres not stated) | > 4 mM (inactive) |
| Cc1ccccc1N1C(=O)CC(=O)NC1=O | > 4 mM (inactive) |
| COc1ccccc1C(=O)Nc1ccccn1 | > 4 mM (inactive) |

| Structure (SMILES) | Kd |
| --- | --- |
| CN1CCN(S(=O)(=O)c2ccc(=O)[nH]c2)CC1 | > 4 mM (inactive) |
| NCc1csc2ccccc12 | > 4 mM (inactive) |
| Oc1ccccc1-c1cc(C(F)(F)F)[nH]n1 | > 4 mM (inactive) |
| Cc1ccc2c(c1)CCCN2C(=O)c1ccncc1 | > 4 mM (inactive) |
| COc1ccc(NC(=O)C2CC(=O)N=C(N)S2)cc1 (configuration not stated) | > 4 mM (inactive) |
| COc1ccccc1-c1noc(-c2ccncc2)n1 | > 4 mM (inactive) |
| O=c1[nH]cc(N=Cc2ccc(F)cc2)c(=O)[nH]1 | > 4 mM (inactive) |
| CC(=O)Nc1cc(C(F)(F)F)ccc1N1CCOCC1 | > 4 mM (inactive) |
| CC(=O)NS(=O)(=O)c1ccc(C)cc1 | > 4 mM (inactive) |
| COc1ccc2c(CC(=O)O)coc2c1 | > 4 mM (inactive) |
| O=C(c1ccccc1F)N1CCN(c2ccccc2)CC1 | > 4 mM (inactive) |
| O=C1C=C(Nc2ccc(O)cc2)c2ccccc2C1=O | > 4 mM (inactive) |
| Cc1occc1C(=O)Nc1nnc(-c2ccncc2)s1 | > 4 mM (inactive) |
| S=C(c1ccc2c(c1)OCO2)N1CCCC1 | > 4 mM (inactive) |
| Nc1ncnc(Cl)c1[N+](=O)[O-] | > 4 mM (inactive) |
| OCc1ccccc1O[C@@H]1O[C@H](CO)[C@@H](O)[C@H](O)[C@H]1O | > 4 mM (inactive) |
| CC1CN(C(=O)c2ccncc2)CC(C)O1 (configuration not stated) | > 4 mM (inactive) |
| O=C(CCc1n[nH]c(=O)[nH]c1=O)NCc1ccccc1 | > 4 mM (inactive) |
| O=C1c2cccc3cc(S(=O)(=O)O)cc(c23)C(=O)N1O | > 4 mM (inactive) |
| CSc1nnc2ccc(-c3cccnc3)nn12 | > 4 mM (inactive) |
| O=C(Oc1ccc(-c2nnco2)cc1)N1CCCCC1 | > 4 mM (inactive) |
| CCc1noc(C)c1C(=O)Nc1ncc(C)s1 | > 4 mM (inactive) |
| NC(=O)c1cccnc1Oc1ccccc1 | > 4 mM (inactive) |
| CC(=O)N1CCN(S(=O)(=O)c2ccccc2)CC1 | > 4 mM (inactive) |
| Cc1ccc(C(=O)Nn2cnnc2)c(Cl)c1 | > 4 mM (inactive) |

| Structure (SMILES) | Kd |
| --- | --- |
| OCc1cccc2c1OCO2 | > 4 mM (inactive) |
| O=C1C=CC(=O)N1c1ccc(N2CCOCC2)cc1 | > 4 mM (inactive) |
| Cc1nc(-c2cc(CO)no2)cs1 | > 4 mM (inactive) |
| O=S1(=O)CCC(NC(=S)N2CCOCC2)C1 (configuration not stated) | > 4 mM (inactive) |
| O=C(O)CN1C(=O)c2cccc([N+](=O)[O-])c2C1=O | > 4 mM (inactive) |
| O=C(O)[C@H](O)[C@@](O)(Cc1ccc(O)cc1)C(=O)O | > 4 mM (inactive) |
| CC1=C(C(N)=O)C(c2ccccc2)NC(=O)N1 (configuration not stated) | > 4 mM (inactive) |
| Cn1nc(C(=O)Nc2cccnc2)c2ccccc2c1=O | > 4 mM (inactive) |
| CNC(=O)Cn1c(=O)n(C)c2ccccc21 | > 4 mM (inactive) |
| Cc1cc2ncc(C(=O)O)c(C)n2n1 | > 4 mM (inactive) |
| Cc1cc(C)n2c(SCc3cccs3)nnc2n1 | > 4 mM (inactive) |
| CC(=O)Nc1nc(-c2cccs2)cs1 | > 4 mM (inactive) |
| COc1ccc(-c2ccc(=O)n(CC(N)=O)n2)cc1 | > 4 mM (inactive) |
| COc1cccc(NC(=O)c2cnn(C)c2Cl)c1 | > 4 mM (inactive) |
| CNC(=O)C1COc2ccccc2O1 (configuration not stated) | > 4 mM (inactive) |
| O=c1cc(-c2ccc(O)cc2)oc2cc(O)cc(O)c12 | > 4 mM (inactive) |
| Nc1nnc(C(F)(F)F)s1 | > 4 mM (inactive) |
| Cc1cccc(C(C)C)c1NC(=O)c1cccnc1 | > 4 mM (inactive) |
| Cc1nc(-c2cccc(N)c2)cs1 | > 4 mM (inactive) |
| CC1SC(=NC(=O)c2ccco2)NC1=O (configuration not stated) | > 4 mM (inactive) |
| OC1COCc2nc3ccccc3n2C1 (configuration not stated) | > 4 mM (inactive) |
| O=C(O)C1=CCCNC1 | > 4 mM (inactive) |
| O=C(O)C1COc2ccccc2O1 (configuration not stated) | > 4 mM (inactive) |
| O=C1NC(=S)N/C1=C\c1cccnc1 | > 4 mM (inactive) |
| O=C1CCc2ccccc2CN1 | > 4 mM (inactive) |

| Structure (SMILES) | Kd |
| --- | --- |
| COCc1cc(C)nc2sc(C(=O)OC)c(N)c12 | > 4 mM (inactive) |
| CCC1C(=O)OCC1Cc1cncn1C (configuration not stated) | > 4 mM (inactive) |
| OCC1Cc2ccccc2CN1 (configuration not stated) | > 4 mM (inactive) |
| Cc1cc2ncc(C(=O)Nc3ccccc3)c(C)n2n1 | > 4 mM (inactive) |
| Cc1ccc2cc(C(=O)O)ccc2n1 | > 4 mM (inactive) |
| Nc1nc2ccc(C(=O)O)cc2s1 | > 4 mM (inactive) |
| Oc1ccc(-n2ccnc2)cc1 | > 4 mM (inactive) |
| NCc1cccc(-n2cccc2)c1 | > 4 mM (inactive) |
| NC(=O)Cn1cnc(-c2ccc(F)cc2)c1 | > 4 mM (inactive) |
| CC(C)(C)NC(=O)N1CCC(C(=O)O)CC1 | > 4 mM (inactive) |
| CCC[C@H]1CC2=C(C[C@@H](CC)CC3=C1C(=O)OC3=O)C(=O)OC2=O | > 4 mM (inactive) |
| O=C1C2CC=C(Cl)CC2C(=O)N1c1ccccc1O (configuration not stated) | > 4 mM (inactive) |
| O=c1/c(=C/c2cccs2)sc2ncnn12 | > 4 mM (inactive) |
| CC(=O)Oc1ccc2c(c1C(C)C)CCC1C(C)(C)CCC[C@]21C (some centres not stated) | > 4 mM (inactive) |
| C[C@@H]1CCC2[C@](C)(CO)[C@@H](O)CC[C@]2(C)[C@@]12CC[C@@](CO)(CCO)O2 (some centres not stated) | > 4 mM (inactive) |
| O=C1NC(=O)C(Cc2cccs2)C(=O)N1 | > 4 mM (inactive) |
| c1ccc(-n2cnnc2)nc1 | > 4 mM (inactive) |
| O=C(CC1SC(=O)NC1=O)Nc1ccccc1 (configuration not stated) | > 4 mM (inactive) |
| O=C(Nc1cnccn1)c1cccnc1 | > 4 mM (inactive) |
| O=C(c1cccc(C(F)(F)F)c1)N1CCCC1 | > 4 mM (inactive) |
| COc1ccc2c(c1)C(NC(C)=O)C(=O)N2C (configuration not stated) | > 4 mM (inactive) |
| O=c1c(-c2ccccc2)coc2cc(O)cc(O)c12 | > 4 mM (inactive) |
